Where “and” joins values, the source holds several entries; their conditions need not be identical. Identical values can stand only once.
Legend:
Test in all cases: biochemical
Format in all cases: binding
[1] = biological target: SfurOBP2 (Sogatella furcifera, UniProt V5T759)
Description: (§1) Thirty-six rice odorants ([He et al., 2014]; [Wang et al., 2017]) and 1-N-phenyl-naphthylamine (1-NPN) were purchased from Sigma-Aldrich (St Louis, MO, USA). These odorants and 1-NPN were dissolved in high-performance liquid chromatography (HPLC) purify grade methanol for 1.0 mM as work solution.
(§2) Fluorescence competitive binding assays were performed on Tecan Spark 10M (Tecan Group Ltd., Männedorf, Switzerland) with the F96 Black ELIAS Plate (Sangon) ([Khuhro et al., 2017]; [Liu et al., 2017]). The solutions were excited at 337 nm and emission spectra were recorded between 390 and 490 nm. First, to test the binding constants of 1-NPN to the SfurOBPs, a 2.0 µM solution of protein in 50 mM Tris-HCl (pH = 7.4) was titrated with 1 mM 1-NPN to achieve virous concentrations. Next, the competitive binding of each odorant was measured using the 1-NPN as fluorescent reporter and odorant as competitor. The concentrations of protein and 1-NPN were both 2.0 µM, the odorant added after protein and 1-NPN added into the well of ELIAS Plate for 2 min. The final concentrations of each competitor were 2, 4, 6, 8, 10, 12, 14, 16, 18 and 20 µM. After 2 min of odorant added, the fluorescence intensity was measured and recorded. The volume of mixed solution in each well was maintained at 250 µL. Each interaction was performed in triplicates.
(§3) GraphPad Prism 7.0 software (GraphPad Software, Inc., La Jolla, CA, USA) was used to calculated and generated the binding constants (K1−NPN) of 1-NPN to SfurOBPs and relative Scatchard plots ([Ban et al., 2003]; [Li et al., 2016]). Dissociation constant (Ki) of each odorant to SfurOBP was computed from the corresponding IC50 value (the half maximal inhibitory concentration), using the following equation: Ki=[IC50]/(1 + [1-NPN]/K1−NPN), where [1-NPN] is the free concentration of 1-NPN and K1−NPN is the dissociation constant of the complex protein/1-NPN.

[2] = biological target: SfurOBP11 (Sogatella furcifera, UniProt V5T6E3)
Description: as §1, §2, §3

[3] = biological target: SfurOBP3 (Sogatella furcifera, UniProt V5T818); conditions: OBP3, three replicate columns
Description: as §1, §2, §3

[4] = biological target: SfurOBP1 (Sogatella furcifera, UniProt V5T8N5); conditions: OBP1, three replicate columns
Description: as §1, §2, §3

Chain of SfurOBP11 (V5T6E3 entry or part of it): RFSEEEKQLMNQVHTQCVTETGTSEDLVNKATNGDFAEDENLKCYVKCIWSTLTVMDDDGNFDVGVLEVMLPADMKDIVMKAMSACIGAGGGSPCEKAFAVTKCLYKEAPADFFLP
Chain of SfurOBP2 (V5T759 entry or part of it): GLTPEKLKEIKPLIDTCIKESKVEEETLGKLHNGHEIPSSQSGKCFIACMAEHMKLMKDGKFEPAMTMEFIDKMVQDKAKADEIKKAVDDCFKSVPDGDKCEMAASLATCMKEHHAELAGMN
Chain of SfurOBP3 (V5T818 entry or part of it): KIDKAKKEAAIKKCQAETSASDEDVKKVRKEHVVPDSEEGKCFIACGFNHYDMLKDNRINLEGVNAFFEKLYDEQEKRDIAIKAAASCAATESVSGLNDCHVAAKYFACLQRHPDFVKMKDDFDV
Chain of SfurOBP1 (V5T8N5 entry or part of it): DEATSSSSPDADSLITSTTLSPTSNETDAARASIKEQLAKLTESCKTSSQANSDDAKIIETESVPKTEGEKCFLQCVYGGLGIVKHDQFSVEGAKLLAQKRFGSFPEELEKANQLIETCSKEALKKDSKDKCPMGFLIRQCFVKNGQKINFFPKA

Fluorescence competitive binding assay, OBP2 (raw fluorescence reading) ([1]; ligand concentration 2 (unit not given), replicate column 1 of 3): 18255 | Fluorescence competitive binding assay, OBP2 (raw fluorescence reading) ([1]; ligand concentration 2 (unit not given), replicate column 2 of 3): 18056 | Fluorescence competitive binding assay, OBP2 (raw fluorescence reading) ([1]; ligand concentration 2 (unit not given), replicate column 3 of 3): 17857 | Fluorescence competitive binding assay, OBP2 (raw fluorescence reading) ([1]; ligand concentration 4 (unit not given), replicate column 1 of 3): 17231 | Fluorescence competitive binding assay, OBP2 (raw fluorescence reading) ([1]; ligand concentration 4 (unit not given), replicate column 2 of 3): 17998 | Fluorescence competitive binding assay, OBP2 (raw fluorescence reading) ([1]; ligand concentration 4 (unit not given), replicate column 3 of 3): 18274 | Fluorescence competitive binding assay, OBP2 (raw fluorescence reading) ([1]; ligand concentration 6 (unit not given), replicate column 1 of 3): 16096 | Fluorescence competitive binding assay, OBP2 (raw fluorescence reading) ([1]; ligand concentration 6 (unit not given), replicate column 2 of 3): 17472 | Fluorescence competitive binding assay, OBP2 (raw fluorescence reading) ([1]; ligand concentration 6 (unit not given), replicate column 3 of 3): 18707 | Fluorescence competitive binding assay, OBP2 (raw fluorescence reading) ([1]; ligand concentration 8 (unit not given), replicate column 1 of 3): 16149 | Fluorescence competitive binding assay, OBP2 (raw fluorescence reading) ([1]; ligand concentration 8 (unit not given), replicate column 2 of 3): 16678 | Fluorescence competitive binding assay, OBP2 (raw fluorescence reading) ([1]; ligand concentration 8 (unit not given), replicate column 3 of 3): 16908 | Fluorescence competitive binding assay, OBP2 (raw fluorescence reading) ([1]; ligand concentration 10 (unit not given), replicate column 1 of 3): 15320 | Fluorescence competitive binding assay, OBP2 (raw fluorescence reading) ([1]; ligand concentration 10 (unit not given), replicate column 2 of 3): 15081 | Fluorescence competitive binding assay, OBP2 (raw fluorescence reading) ([1]; ligand concentration 10 (unit not given), replicate column 3 of 3): 16366 | Fluorescence competitive binding assay, OBP2 (raw fluorescence reading) ([1]; ligand concentration 12 (unit not given), replicate column 1 of 3): 14706 | Fluorescence competitive binding assay, OBP2 (raw fluorescence reading) ([1]; ligand concentration 12 (unit not given), replicate column 2 of 3): 15645 | Fluorescence competitive binding assay, OBP2 (raw fluorescence reading) ([1]; ligand concentration 12 (unit not given), replicate column 3 of 3): 15214 | Fluorescence competitive binding assay, OBP2 (raw fluorescence reading) ([1]; ligand concentration 14 (unit not given), replicate column 1 of 3): 14108 | Fluorescence competitive binding assay, OBP2 (raw fluorescence reading) ([1]; ligand concentration 14 (unit not given), replicate column 2 of 3): 14696 | Fluorescence competitive binding assay, OBP2 (raw fluorescence reading) ([1]; ligand concentration 14 (unit not given), replicate column 3 of 3): 15283 | Fluorescence competitive binding assay, OBP2 (raw fluorescence reading) ([1]; ligand concentration 16 (unit not given), replicate column 1 of 3): 14285 | Fluorescence competitive binding assay, OBP2 (raw fluorescence reading) ([1]; ligand concentration 16 (unit not given), replicate column 2 of 3): 14484 | Fluorescence competitive binding assay, OBP2 (raw fluorescence reading) ([1]; ligand concentration 16 (unit not given), replicate column 3 of 3): 14085 | Fluorescence competitive binding assay, OBP2 (raw fluorescence reading) ([1]; ligand concentration 18 (unit not given), replicate column 1 of 3): 14063 | Fluorescence competitive binding assay, OBP2 (raw fluorescence reading) ([1]; ligand concentration 18 (unit not given), replicate column 2 of 3): 14665 | Fluorescence competitive binding assay, OBP2 (raw fluorescence reading) ([1]; ligand concentration 18 (unit not given), replicate column 3 of 3): 14360 | Fluorescence competitive binding assay, OBP2 (raw fluorescence reading) ([1]; ligand concentration 20 (unit not given), replicate column 1 of 3): 13793 | Fluorescence competitive binding assay, OBP2 (raw fluorescence reading) ([1]; ligand concentration 20 (unit not given), replicate column 2 of 3): 14314 | Fluorescence competitive binding assay, OBP2 (raw fluorescence reading) ([1]; ligand concentration 20 (unit not given), replicate column 3 of 3): 13272 | Fluorescence intensity, fluorescence competitive binding assay, OBP11 ([2]; ligand concentration 2, replicate 1): 28052 | Fluorescence intensity, fluorescence competitive binding assay, OBP11 ([2]; ligand concentration 2, replicate 2): 24884 | Fluorescence intensity, fluorescence competitive binding assay, OBP11 ([2]; ligand concentration 2, replicate 3): 25998 | Fluorescence intensity, fluorescence competitive binding assay, OBP11 ([2]; ligand concentration 4, replicate 1): 25234 | Fluorescence intensity, fluorescence competitive binding assay, OBP11 ([2]; ligand concentration 4, replicate 2): 27203 | Fluorescence intensity, fluorescence competitive binding assay, OBP11 ([2]; ligand concentration 4, replicate 3): 25942 | Fluorescence intensity, fluorescence competitive binding assay, OBP11 ([2]; ligand concentration 6, replicate 1): 26005 | Fluorescence intensity, fluorescence competitive binding assay, OBP11 ([2]; ligand concentration 6, replicate 2): 24895 | Fluorescence intensity, fluorescence competitive binding assay, OBP11 ([2]; ligand concentration 6, replicate 3): 23079 | Fluorescence intensity, fluorescence competitive binding assay, OBP11 ([2]; ligand concentration 8, replicate 1): 23239 | Fluorescence intensity, fluorescence competitive binding assay, OBP11 ([2]; ligand concentration 8, replicate 2): 23328 | Fluorescence intensity, fluorescence competitive binding assay, OBP11 ([2]; ligand concentration 8, replicate 3): 24337 | Fluorescence intensity, fluorescence competitive binding assay, OBP11 ([2]; ligand concentration 10, replicate 1): 23466 | Fluorescence intensity, fluorescence competitive binding assay, OBP11 ([2]; ligand concentration 10, replicate 2): 24012 | Fluorescence intensity, fluorescence competitive binding assay, OBP11 ([2]; ligand concentration 10, replicate 3): 22919 | Fluorescence intensity, fluorescence competitive binding assay, OBP11 ([2]; ligand concentration 12, replicate 1): 20499 | Fluorescence intensity, fluorescence competitive binding assay, OBP11 ([2]; ligand concentration 12, replicate 2): 21796 | Fluorescence intensity, fluorescence competitive binding assay, OBP11 ([2]; ligand concentration 12, replicate 3): 19860 | Fluorescence intensity, fluorescence competitive binding assay, OBP11 ([2]; ligand concentration 14, replicate 1): 20110 | Fluorescence intensity, fluorescence competitive binding assay, OBP11 ([2]; ligand concentration 14, replicate 2): 20124 | Fluorescence intensity, fluorescence competitive binding assay, OBP11 ([2]; ligand concentration 14, replicate 3): 20151 | Fluorescence intensity, fluorescence competitive binding assay, OBP11 ([2]; ligand concentration 16, replicate 1): 18498 | Fluorescence intensity, fluorescence competitive binding assay, OBP11 ([2]; ligand concentration 16, replicate 2): 20828 | Fluorescence intensity, fluorescence competitive binding assay, OBP11 ([2]; ligand concentration 16, replicate 3): 20812 | Fluorescence intensity, fluorescence competitive binding assay, OBP11 ([2]; ligand concentration 18, replicate 1): 20721 | Fluorescence intensity, fluorescence competitive binding assay, OBP11 ([2]; ligand concentration 18, replicate 2): 21669 | Fluorescence intensity, fluorescence competitive binding assay, OBP11 ([2]; ligand concentration 18, replicate 3): 21849 | Fluorescence intensity, fluorescence competitive binding assay, OBP11 ([2]; ligand concentration 20, replicate 1): 20792 | Fluorescence intensity, fluorescence competitive binding assay, OBP11 ([2]; ligand concentration 20, replicate 2): 21117 | Fluorescence intensity, fluorescence competitive binding assay, OBP11 ([2]; ligand concentration 20, replicate 3): 20999 | Fluorescence competitive binding assay, fluorescence intensity ([3]; ligand concentration 2): 60413 and 65968 and 63200 | Fluorescence competitive binding assay, fluorescence intensity ([3]; ligand concentration 4): 61250 and 61185 and 61320 | Fluorescence competitive binding assay, fluorescence intensity ([3]; ligand concentration 6): 60246 and 58949 and 59593 | Fluorescence competitive binding assay, fluorescence intensity ([3]; ligand concentration 8): 52502 and 56703 and 49181 | Fluorescence competitive binding assay, fluorescence intensity ([3]; ligand concentration 10): 59611 and 55127 and 57362 | Fluorescence competitive binding assay, fluorescence intensity ([3]; ligand concentration 12): 47975 and 49504 and 49931 | Fluorescence competitive binding assay, fluorescence intensity ([3]; ligand concentration 14): 42590 and 46739 and 44665 | Fluorescence competitive binding assay, fluorescence intensity ([3]; ligand concentration 16): 36927 and 42551 and 39754 | Fluorescence competitive binding assay, fluorescence intensity ([3]; ligand concentration 18): 35693 and 43209 and 41553 | Fluorescence competitive binding assay, fluorescence intensity ([3]; ligand concentration 20): 42100 and 41400 and 42823 | Fluorescence competitive binding assay, fluorescence intensity ([4]; ligand concentration 2 (μM)): 6756 and 5373 and 6005 | Fluorescence competitive binding assay, fluorescence intensity ([4]; ligand concentration 4 (μM)): 6244 and 6492 and 6739 | Fluorescence competitive binding assay, fluorescence intensity ([4]; ligand concentration 6 (μM)): 6349 and 5828 and 6089 | Fluorescence competitive binding assay, fluorescence intensity ([4]; ligand concentration 8 (μM)): 6071 and 5880 and 6063 | Fluorescence competitive binding assay, fluorescence intensity ([4]; ligand concentration 10 (μM)): 6080 and 6185 and 6121 | Fluorescence competitive binding assay, fluorescence intensity ([4]; ligand concentration 12 (μM)): 5959 and 5941 and 5922 | Fluorescence competitive binding assay, fluorescence intensity ([4]; ligand concentration 14 (μM)): 6211 and 5589 and 5885 | Fluorescence competitive binding assay, fluorescence intensity ([4]; ligand concentration 16 (μM)): 6060 and 6168 and 5508 | Fluorescence competitive binding assay, fluorescence intensity ([4]; ligand concentration 18 (μM)): 6493 and 6572 and 6293 | Fluorescence competitive binding assay, fluorescence intensity ([4]; ligand concentration 20 (μM)): 7139 and 6435 and 6856
SMILES: CC(C)COC(=O)CCCCC(=O)OCC(C)C [DA(diisobutyl adipate)]
